Experimental data reported in patent publication US10550143B2, “C,O-spiro aryl glycoside compounds, preparation therefor and use thereof” (SHANGHAI INSTITUTE OF MATERIA MEDICA, CHINESE ACADEMY OF …, priority 2015, dated 2020).

Target: T1, human sodium-glucose cotransporter 2 (SGLT2) (Homo sapiens, UniProt P31639)
T1 construct: expressed in transfected cells; host or cells: NIH3T3 (mouse fibroblast) cells expressing hSGLT2
T1 sequence (P31639 1-672): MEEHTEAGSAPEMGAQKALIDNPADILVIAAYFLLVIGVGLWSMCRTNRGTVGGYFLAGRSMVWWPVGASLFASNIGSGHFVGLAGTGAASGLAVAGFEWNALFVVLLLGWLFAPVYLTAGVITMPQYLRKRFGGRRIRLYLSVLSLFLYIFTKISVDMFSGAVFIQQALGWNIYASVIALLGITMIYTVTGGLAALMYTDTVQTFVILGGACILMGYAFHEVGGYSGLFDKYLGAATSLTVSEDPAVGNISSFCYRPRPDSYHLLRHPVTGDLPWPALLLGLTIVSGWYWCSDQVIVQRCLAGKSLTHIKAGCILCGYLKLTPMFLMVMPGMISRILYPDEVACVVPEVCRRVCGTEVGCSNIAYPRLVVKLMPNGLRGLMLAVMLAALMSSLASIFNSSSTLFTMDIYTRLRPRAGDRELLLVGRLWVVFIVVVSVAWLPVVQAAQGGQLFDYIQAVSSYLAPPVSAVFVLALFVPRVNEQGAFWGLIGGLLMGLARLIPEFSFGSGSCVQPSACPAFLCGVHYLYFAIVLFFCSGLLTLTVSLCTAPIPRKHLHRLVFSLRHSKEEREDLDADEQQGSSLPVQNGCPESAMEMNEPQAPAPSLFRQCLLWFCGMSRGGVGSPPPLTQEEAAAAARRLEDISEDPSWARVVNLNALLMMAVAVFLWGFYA
Experiment: In vitro SGLT2 inhibition, methyl-α-D-[U-14C]glucopyranoside uptake in NIH3T3-hSGLT2 cells
Format: cell-based
Conditions: for inhibition at 0.01 µM: SGLT2, 10 nM, read-out: % Inhibition rate ± SD 10 nM; for inhibition at 0.1 µM: SGLT2, 100 nM, read-out: % Inhibition rate ± SD 100 nM
Experimental: Inhibition of the compounds of formula I against human sodium-glucose cotransporter 2 (SGLT2) was determined experimentally and the experimental procedures were carried out as reference^1.
Methyl-α-D-[U-^14C] glucopyranoside (Perkin Elmer) Dimethylsulfoxide (Genebase, Prod No: 0231)
(1) Primary screening of hSGLT2 are conducted with two concentrations, 100 nM and 10 nM;
SGLT2 transports D-glucose at 1:1 sodium-glucose ratio, glucose is replaced by the non-metabolic and isotope labeled methyl-aD-[U-^14C] glucopyranoside and methyl-aD-glucopyranoside, and the amount of isotope transferred into the cells was determined.
1) 0.2% gelatin in a 96-well plate was put in a 37° C. incubator for further use;
2) NIH3T3-hSGLT2 cells were injected into 96-well plates, 40000/well, and 100 μL culture medium per well:
3) the fluid was changed in the next day, and sodium butyrate was added into medium at a final concentration of 2 mM;
4) wash the cells with 100 μL of KRH—Na^+ for 3 times and incubate cells with 50 μL for 30 minutes. Cells were changed to 50 μL of compound in KRH—Na^+, uptake buffer (KRH—Na^+ and methyl-α-D-[U-^14C]glucopyranoside and ⅙ mM methyl-α-D-glucopyranoside at 10 μL per well) was added; KRH-acetylcholine solution was used as background control instead of KRH-Na^+
5) washed with 100 μL PBS for 3 times, dried, 50 μL lysate and 150 μL scintillation fluid were added, the membrane was covered and flattened, shaken on a shaker to mix thoroughly, centrifuged at 1500 rpm at 4° C. for 3 min, taken out and read;
6) the results were analyses.
The inhibition rate (% Inhibiton) of each sample at each concentration was calculated by dividing the value of the compound well value minus the background value by the value of the DMSO control well value minus the background value.
IC50 is calculated as follows: […]
The y value is the activity or inhibition percent, the x value is the concentration of the corresponding compound, top (the maximum y value of the curve), bottom (the minimum y value of the curve).

Row | SMILES | inhibition at 0.01 µM [%] | inhibition at 0.1 µM [%]
1 | C[C@H]1O[C@]2(OCc3cc(F)c(Cc4cc5ccccc5o4)cc32)[C@H](O)[C@@H](O)[C@@H]1O [Example A48, (1S,3′R,4′S,5′S,6′R)-6′-methyl-6-(benzo[b]furan-2-methyl)-5-fluoro-3′,4′,5′,6′-tetrahydro-3H-spiro[isobenzofuran-1,2′-pyran]-3′,4′,5′-triol] | 13.1 ± 8.4 | 33.2 ± 10.1
2 | C#Cc1cc2c(cc1Cc1ccc(CC)s1)[C@]1(OC2)O[C@H](C)[C@@H](O)[C@H](O)[C@H]1O [Example A85, (1S,3′R,4′S,5′S,6′R)-5-ethynyl-6′-methyl-6-((5-ethylthienyl)-2-methyl)-3′,4′,5′,6′-tetrahydro-3H-spiro[isobenzofuran-1,2′-pyran]-3′,4′,5′-triol] | 33.9 ± 14.1 | 50.4 ± 16.9
3 | C[C@H]1O[C@]2(OCc3cc(Cl)c(Cc4ccc5occc5c4)cc32)[C@H](O)[C@@H](O)[C@@H]1O [Example A106, (1S,3′R,4′S,5′S,6′R)-6-(benzofuran-5-ylmethyl)-5-chloro-6′-methyl-3′,4′,5′,6′-tetrahydro-3H-spiro[isobenzofuran-1,2′-pyran]-3′,4′,5′-triol] | 4.8 ± 3.9 | 50.8 ± 7.5
4 | C[C@H]1O[C@]2(OCc3cc(Cl)c(Cc4ccc(C5(C#N)CC5)cc4)cc32)[C@H](O)[C@@H](O)[C@@H]1O [Example A108, 1-(4-(((1S,3′R,4′S,5′S,6′R)-5-chloro-3′,4′,5′-trihydroxy-6′-methyl-3′,4′,5′,6′-tetrahydro-3H-spiro[isobenzofuran-1,2′-pyran]-6-yl)methyl)phenyl)cyclopropane-1-formonitrile] | 100.4 ± 0.9 | 96.2 ± 3.4
5 | C[C@H]1O[C@]2(OCc3cc(Cl)c(Cc4ccc(C5(C#N)CC5)s4)cc32)[C@H](O)[C@@H](O)[C@@H]1O [Example A109, 1-(5-(((1S,3′R,4′S,5′S,6′R)-5-chloro-3′,4′,5′-trihydroxy-6′-methyl-3′,4′,5′,6′-tetrahydro-3H-spiro[isobenzofuran-1,2′-pyran]-6-yl)methyl)thiophene-2-yl)cyclopropane-1-formonitrile] | 86.8 ± 1.6 | 62.6 ± 7.2
6 | C[C@H]1O[C@]2(OCc3cc(Cl)c(Cc4ccc(C(F)(F)F)cc4)cc32)[C@H](O)[C@@H](O)[C@@H]1O [Example A110] | 93 ± 5.9 | 71.5 ± 7.2
7 | C[C@H]1O[C@]2(OCc3cc(Cl)c(C(=O)c4ccc(C(F)(F)F)cc4)cc32)[C@H](O)[C@@H](O)[C@@H]1O [Example A111, ((1S,3′R,4′S,5′S,6′R)-5-chloro-3′,4′,5′-trihydroxy-6′-methyl-3′,4′,5′,6′-tetrahydro-3H-spiro[isobenzofuran-1,2′-pyran]-6-yl)(4-(trifluoromethyl)phenyl)ketone] | 46.2 ± 11.1 | 39.9 ± 10.8
8 | C[C@H]1O[C@]2(OCc3cc(Cl)c(C(=O)c4ccc(C(F)(F)F)c(F)c4)cc32)[C@H](O)[C@@H](O)[C@@H]1O [Example A112, ((1S,3′R,4′S,5′S,6′R)-5-chloro-3′,4′,5′-trihydroxy-6′-methyl-3′,4′,5′,6′-tetrahydro-3H-spiro[isobenzofuran-1,2′-pyran]-6-yl)(3-fluoro-4-(trifluoromethyl)phenyl)ketone] | 34.9 ± 23 | 44.3 ± 15.6
9 | CCc1ccc(C(=O)c2cc3c(cc2Cl)CO[C@]32O[C@H](C)[C@@H](O)[C@H](O)[C@H]2O)s1 [Example A113, ((1S,3′R,4′S,5′S,6′R)-5-chloro-3′,4′,5′-trihydroxy-6′-methyl-3′,4′,5′,6′-tetrahydro-3H-spiro[isobenzofuran-1,2′-pyran]-6-yl)(5-ethylthiophene-2-yl)ketone] | 20.9 ± 16.3 | 22.5 ± 10.7
10 | CCOCCc1ccc(Cc2cc3c(cc2Cl)CO[C@]32O[C@H](C)[C@@H](O)[C@H](O)[C@H]2O)s1 [Example A115, (1S,3′R,4′S,5′S,6′R)-5-chloro-6-((5-(2-ethoxyethyl)thiophene-2-yl)methyl)-6′-methyl-3′,4′,5′,6′-tetrahydro-3H-spiro[isobenzofuran-1,2′-pyran]-3′,4′,5′-triol] | 78.1 ± 5.1 | 53.8 ± 5.5
